# Values quoted from earlier work in patent US20100209350A1, “Biomarkers for Adipose Tissue Activity” (priority 2008, published 2010).
# Tested on: adiponectin
# Conditions: patient responding to the therapy; sample such as blood; general statement, no study described
structure (smiles),measurement,value
CN(C)C(=N)N=C(N)N [metformin],increase of adiponectin level from a reference value,about 20%
